Data as given in patent US4647586A, “Pharmaceutical oil-in-water type micro-emulsion” (priority 1984, dated 1987).

Assays:
[1] = tested on: Adjuvant-induced polyarthritis; test: Adjuvant-induced polyarthritis in rats, adjuvant-injected paw [Test 2]; type: in vivo, SD-strain female rats
Procedure: (a) Experimental animals: SD-strain famale rats 140-180g).
(§1) (b) Test drugs: The same as in A-1 [Test 2].
Rats were anesthetized with ether inhalation, and 0.6 mg of Mycobacterium butyricum suspended in 0.1 ml of white paraffin oil was immediately injected intradermally into the planter surface of the left hind paw of each rat via a 27 gauge needle fitted to a 0.5 ml syringe (day 0). On the 14th day after the adjuvant injection, arthritis-established rats selected by development of secondary lesions were used. Volumes of both hind paws in arthritis-established rats were measured by a plethysmometer (UGO BASILE), and the rats were randomized on the basis of the edema volume in the adjuvant-injected paw. Once daily, beginning on the 14th day up to the 18th day, drugs and vehicles were administered intravenously. Measurements of both paw volumes were performed every day from the 15th day up to the 18th day, and on the 21st day and the 24th day. The inhibition percent were calculated in accordance with the calculation formula as in [Test 1] of A-1.

[2] = tested on: Carrageenin-induced paw edema; test: Carrageenin-induced paw edema in rats [Test 2]; type: in vivo, SD-strain male rats
Procedure: (a) Experimental animals: SD-strain male rats (120-180 g).
A micro-emulsion containing ethyl 4-biphenylylacetate prepared as in Examples 11, 12, 13 and 14 given hereinafter was administered at a dose of 5 ml per kg of the animals. Venolipid® (Morishita Pharmaceutical Co., Ltd.) was used as a vehicle control. As control drugs, a solution or suspension of ethyl 4-biphenylylacetate in physiological saline containing 0.5% Cremophor EL® (Sigma Chemical Company, a solubilizing agent), 0.2% of polyethylene glycol 400 and 10% of dimethyl sulfoxide, a physiological saline solution of sodium 4-biphenylylacetate and a physiological saline solution of Aspirin DL-lysine [Venopirin®, Green Cross Co.] were used. As the vehicle control of the control drugs, the above solvents were used.
A 1% carrageenin solution in physiological saline was injected subcutaneously in an amount of 0.05 ml into the planter surface of the left hind paw of each rat via a 25 gauge needle fitted to a 0.25 ml syringe. One hour after carrageenin injection, the rats were randomized on the basis of the edema volume, and intravenous administration of the drugs and vehicles followed immediately. The volume of the left hind paw was measured by a plethysmometer (Ugo Basile) prior to the injection of the carrageenin solution and at 2, 3, 4, 5 and 6 hours after the carrageenin injection. As the volume of edema, an increase in the paw volume was taken.
The inhibition percents were calculated in accordance with the same calculation formula as in Test 1.

[3] = tested on: Carrageenin-induced paw edema; test: Carrageenin-induced paw edema in rats [Test 1]; type: in vivo, Wistar strain male rats
Procedure: A-1: Effect of inhibiting carrageenin-induced paw edema
(a) Experimental animals: Wistar strain male rats (body weight 160-220 g), 7 per group.
As a control drug, an aqueous solution of sodium 4-biphenylylacetate was used.
The volume of the left hind paw of each rat was measured with a plethysmometer (supplied by Ugo Basile Company). A 1% carrageenin solution as an inflammation inducer was injected subcutaneously into the left hind paw of each rat to induce paw edema. The volume of the paw of the rat was measured before the administration of carrageenin and every hour after the administration up to 6 hours. […] The test drugs were intravenously administered 2 hours after the injection of carrageenin. The edema inhibition rate were calculated by the following equation. [formula]
Ec: the volume of edema of the control group to which only the solvent was administered at each time (average value)
Et: the volume of edema in the drug-administered group at each time (average value)

[4] = tested on: abnormal 3-legged gait (brewers yeast-inflamed paw); test: Reversal of abnormal 3-legged gait in rats (analgesic activity); type: in vivo, SD-strain male rats; settings: Rattus norvegicus, iv, read-out: ED50 (dose causing at least 50% reversal of gait score in 50% of the rats)
Procedure: (a) Experimental animals: SD-strain male rats (120-165 g).
as §1
A 40% suspension of dried brewers yeast in physiological saline was injected (0.25 ml/rat) subcutaneously into the planter surface of the left hind paw of each rat. Three hours later, the walking gait on a wire mesh platform was assessed for each rat.
0 = Normal gait in the presence of a severely
0.5 = As above, with intermittent mild limping.
1.0 = Constant limping, but continuous use of
1.5 = Limping with occasional 3-legged gait
2.0 = Continous 3-Legged gait and/or only the
Any rat not showing a gait score of 2 was eliminated from this test. Drugs and vehicles were then administered intravenously. Measurements of the gait were made at 1, 2, 3 and 4 hours after drug administration.

[5] = Distribution to the tissue; settings: 10 mg/kg tail vein, as 4-biphenylylacetic acid
Procedure: (a) Experimental animals: Wistar-strain male rats (body weight 60-220 g), 6 per group.
The rats were periodically killed, and the major organs were extracted. The concentration of the drug in the tissues were measured by the conventional HPLC method.

O=C([O-])Cc1ccc(-c2ccccc2)cc1.[Na+]
Inhibition (%) ([1]; 1.25 mg/kg/day i.v. as 4-biphenylylacetic acid, day 15): -1.8%
Inhibition (%) ([1]; 1.25 mg/kg/day i.v. as 4-biphenylylacetic acid, day 16): 1.2%
Inhibition (%) ([1]; 1.25 mg/kg/day i.v. as 4-biphenylylacetic acid, day 17): 7.9%
Inhibition (%) ([1]; 1.25 mg/kg/day i.v. as 4-biphenylylacetic acid, day 18): 3.9%
Inhibition (%) ([1]; 1.25 mg/kg/day i.v. as 4-biphenylylacetic acid, day 21): -7.5%
Inhibition (%) ([1]; 1.25 mg/kg/day i.v. as 4-biphenylylacetic acid, day 24): -14.1%
Inhibition (%) ([1]; 2.5 mg/kg/day i.v. as 4-biphenylylacetic acid, day 15): -4.2%
Inhibition (%) ([1]; 2.5 mg/kg/day i.v. as 4-biphenylylacetic acid, day 16): 1.5%
Inhibition (%) ([1]; 2.5 mg/kg/day i.v. as 4-biphenylylacetic acid, day 17): 1.9%
Inhibition (%) ([1]; 2.5 mg/kg/day i.v. as 4-biphenylylacetic acid, day 18): -3.9%
Inhibition (%) ([1]; 2.5 mg/kg/day i.v. as 4-biphenylylacetic acid, day 21): -15.7%
Inhibition (%) ([1]; 2.5 mg/kg/day i.v. as 4-biphenylylacetic acid, day 24): -29.7%
Inhibition (%) ([1]; 5.0 mg/kg/day i.v. as 4-biphenylylacetic acid, day 15): 7.3%
Inhibition (%) ([1]; 5.0 mg/kg/day i.v. as 4-biphenylylacetic acid, day 16): 12.9%
Inhibition (%) ([1]; 5.0 mg/kg/day i.v. as 4-biphenylylacetic acid, day 17): 17.9%
Inhibition (%) ([1]; 5.0 mg/kg/day i.v. as 4-biphenylylacetic acid, day 18): 15.6%
Inhibition (%) ([1]; 5.0 mg/kg/day i.v. as 4-biphenylylacetic acid, day 21): 9.2%
Inhibition (%) ([1]; 5.0 mg/kg/day i.v. as 4-biphenylylacetic acid, day 24): 2.8%
Inhibition (%) ([1]; 10.0 mg/kg/day i.v. as 4-biphenylylacetic acid, day 15): 8.2%
Inhibition (%) ([1]; 10.0 mg/kg/day i.v. as 4-biphenylylacetic acid, day 16): 9.5%
Inhibition (%) ([1]; 10.0 mg/kg/day i.v. as 4-biphenylylacetic acid, day 17): 17.9%
Inhibition (%) ([1]; 10.0 mg/kg/day i.v. as 4-biphenylylacetic acid, day 18): 16.6%
Inhibition (%) ([1]; 10.0 mg/kg/day i.v. as 4-biphenylylacetic acid, day 21): 1.3%
Inhibition (%) ([1]; 10.0 mg/kg/day i.v. as 4-biphenylylacetic acid, day 24): -0.7%
ED20 ([1]; Rattus norvegicus, iv, read-out: ED20 (dose required to cause a 20% inhibition of adjuvant-injected paw volume)): 14.3 mg/kg
Inhibition (%) ([2]; 1.25 mg/kg i.v. as 4-biphenylylacetic acid, 2 h after carrageenin): 6.6%
Inhibition (%) ([2]; 1.25 mg/kg i.v. as 4-biphenylylacetic acid, 3 h after carrageenin): 0%
Inhibition (%) ([2]; 1.25 mg/kg i.v. as 4-biphenylylacetic acid, 4 h after carrageenin): 8.5%
Inhibition (%) ([2]; 1.25 mg/kg i.v. as 4-biphenylylacetic acid, 5 h after carrageenin): 5.2%
Inhibition (%) ([2]; 1.25 mg/kg i.v. as 4-biphenylylacetic acid, 6 h after carrageenin): 6.1%
Inhibition (%) ([2]; 2.5 mg/kg i.v. as 4-biphenylylacetic acid, 2 h after carrageenin): 19,7%
Inhibition (%) ([2]; 2.5 mg/kg i.v. as 4-biphenylylacetic acid, 3 h after carrageenin): 11.7%
Inhibition (%) ([2]; 2.5 mg/kg i.v. as 4-biphenylylacetic acid, 4 h after carrageenin): 18.6%
Inhibition (%) ([2]; 2.5 mg/kg i.v. as 4-biphenylylacetic acid, 5 h after carrageenin): 20.7%
Inhibition (%) ([2]; 2.5 mg/kg i.v. as 4-biphenylylacetic acid, 6 h after carrageenin): 10.2%
Inhibition (%) ([2]; 5.0 mg/kg i.v. as 4-biphenylylacetic acid, 2 h after carrageenin): 9.8%
Inhibition (%) ([2]; 5.0 mg/kg i.v. as 4-biphenylylacetic acid, 3 h after carrageenin): 6.6%
Inhibition (%) ([2]; 5.0 mg/kg i.v. as 4-biphenylylacetic acid, 4 h after carrageenin): 20.3%
Inhibition (%) ([2]; 5.0 mg/kg i.v. as 4-biphenylylacetic acid, 5 h after carrageenin): 19.0%
Inhibition (%) ([2]; 5.0 mg/kg i.v. as 4-biphenylylacetic acid, 6 h after carrageenin): 30.6%
Inhibition (%) ([2]; 10.0 mg/kg i.v. as 4-biphenylylacetic acid, 2 h after carrageenin): 23.0%
Inhibition (%) ([2]; 10.0 mg/kg i.v. as 4-biphenylylacetic acid, 3 h after carrageenin): 28.3%
Inhibition (%) ([2]; 10.0 mg/kg i.v. as 4-biphenylylacetic acid, 4 h after carrageenin): 35.6%
Inhibition (%) ([2]; 10.0 mg/kg i.v. as 4-biphenylylacetic acid, 5 h after carrageenin): 29.3%
Inhibition (%) ([2]; 10.0 mg/kg i.v. as 4-biphenylylacetic acid, 6 h after carrageenin): 30.6%
ED30 ([2]; Rattus norvegicus, iv, read-out: ED30 (dose required to cause a 30% inhibition of edema volume)): 10.5 mg/kg
Edema inhibitory effect (inhibition rate, %) ([3]; 2.5 mg/kg i.v. as 4-biphenylylacetic acid, 2 hours after carrageenin (time of dosing)): 0%
Edema inhibitory effect (inhibition rate, %) ([3]; 2.5 mg/kg i.v. as 4-biphenylylacetic acid, 3 hours after carrageenin): 8.4%
Edema inhibitory effect (inhibition rate, %) ([3]; 2.5 mg/kg i.v. as 4-biphenylylacetic acid, 4 hours after carrageenin): 13.2%
Edema inhibitory effect (inhibition rate, %) ([3]; 2.5 mg/kg i.v. as 4-biphenylylacetic acid, 5 hours after carrageenin): 17.1%
Edema inhibitory effect (inhibition rate, %) ([3]; 2.5 mg/kg i.v. as 4-biphenylylacetic acid, 6 hours after carrageenin): 19.8%
Edema inhibitory effect (inhibition rate, %) ([3]; 5.0 mg/kg i.v. as 4-biphenylylacetic acid, 2 hours after carrageenin (time of dosing)): 0%
Edema inhibitory effect (inhibition rate, %) ([3]; 5.0 mg/kg i.v. as 4-biphenylylacetic acid, 3 hours after carrageenin): 9.5%
Edema inhibitory effect (inhibition rate, %) ([3]; 5.0 mg/kg i.v. as 4-biphenylylacetic acid, 4 hours after carrageenin): 15.1%
Edema inhibitory effect (inhibition rate, %) ([3]; 5.0 mg/kg i.v. as 4-biphenylylacetic acid, 5 hours after carrageenin): 17.4%
Edema inhibitory effect (inhibition rate, %) ([3]; 5.0 mg/kg i.v. as 4-biphenylylacetic acid, 6 hours after carrageenin): 20.8%
ED20 ([3]; Rattus norvegicus, iv, 2 h, read-out: ED20 (20% edema inhibitory effect)): 8.5 mg/kg
Edema inhibitive effect versus the micro-emulsions ([3]; i.v.): less effect
ED50 [4]: 7.1 mg/kg
Tissue concentration at 30 seconds after administration [5]: concentrations above those at which they showed a pharmacological activity
